Results as given in article PMC6199744, “Development of Chemical Proteomics for the Folateome and Analysis of the Kinetoplastid Folateome” (ACS Infectious Diseases, 2018).
Where two headings read alike, the source gives them in different places.

Legend:
Type in all cases: binding
[1] = target: T1, HeLa cell extract proteins (Homo sapiens, UniProt O00743)
T1 construct: endogenous in cells; host or cells: HeLa cell extract
T1 sequence (O00743 1-305): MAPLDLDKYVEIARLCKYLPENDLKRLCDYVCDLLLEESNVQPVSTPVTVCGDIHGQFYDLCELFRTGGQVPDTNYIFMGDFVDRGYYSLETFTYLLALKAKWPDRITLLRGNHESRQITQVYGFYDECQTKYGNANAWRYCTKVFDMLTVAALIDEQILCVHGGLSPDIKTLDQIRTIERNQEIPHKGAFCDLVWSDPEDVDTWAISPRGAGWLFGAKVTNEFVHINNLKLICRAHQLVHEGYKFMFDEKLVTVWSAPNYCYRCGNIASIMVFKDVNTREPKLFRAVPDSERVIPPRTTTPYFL

[2] = target: T2, HeLa cell extract proteins (Homo sapiens, UniProt Q8TEX9)
T2 construct: endogenous in cells; host or cells: HeLa cell extract
T2 sequence (Q8TEX9 1-1081): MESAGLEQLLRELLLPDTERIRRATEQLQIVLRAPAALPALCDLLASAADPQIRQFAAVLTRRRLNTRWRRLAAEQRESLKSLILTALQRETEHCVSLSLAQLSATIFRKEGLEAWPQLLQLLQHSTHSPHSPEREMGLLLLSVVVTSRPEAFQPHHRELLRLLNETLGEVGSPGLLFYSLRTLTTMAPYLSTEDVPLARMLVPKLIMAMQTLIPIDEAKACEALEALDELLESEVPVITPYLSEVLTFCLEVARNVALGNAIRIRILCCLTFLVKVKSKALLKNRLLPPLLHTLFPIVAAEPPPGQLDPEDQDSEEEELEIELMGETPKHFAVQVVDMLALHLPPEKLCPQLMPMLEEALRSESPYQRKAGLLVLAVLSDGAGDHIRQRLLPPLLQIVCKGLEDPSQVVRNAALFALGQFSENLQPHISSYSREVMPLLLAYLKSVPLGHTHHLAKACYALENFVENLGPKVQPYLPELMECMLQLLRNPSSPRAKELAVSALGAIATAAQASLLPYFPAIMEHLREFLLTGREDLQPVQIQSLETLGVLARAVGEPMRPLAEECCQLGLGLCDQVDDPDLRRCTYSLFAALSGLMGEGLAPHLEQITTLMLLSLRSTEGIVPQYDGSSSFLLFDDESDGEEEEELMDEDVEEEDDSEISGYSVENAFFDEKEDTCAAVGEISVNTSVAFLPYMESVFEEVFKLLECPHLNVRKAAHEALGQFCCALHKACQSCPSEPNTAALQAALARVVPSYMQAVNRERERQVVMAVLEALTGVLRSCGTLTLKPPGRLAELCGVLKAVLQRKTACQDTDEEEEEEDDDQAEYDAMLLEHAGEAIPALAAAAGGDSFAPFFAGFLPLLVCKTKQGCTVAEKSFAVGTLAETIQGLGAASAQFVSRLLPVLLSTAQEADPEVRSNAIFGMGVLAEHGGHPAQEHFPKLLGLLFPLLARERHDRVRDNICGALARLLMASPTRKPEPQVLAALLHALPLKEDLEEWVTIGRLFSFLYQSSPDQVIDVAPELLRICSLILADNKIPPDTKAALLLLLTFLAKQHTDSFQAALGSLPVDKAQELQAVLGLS

[3] = target: T3, HeLa cell extract proteins (Homo sapiens, UniProt P05455)
T3 construct: endogenous in cells; host or cells: HeLa cell extract
T3 sequence (P05455 1-408): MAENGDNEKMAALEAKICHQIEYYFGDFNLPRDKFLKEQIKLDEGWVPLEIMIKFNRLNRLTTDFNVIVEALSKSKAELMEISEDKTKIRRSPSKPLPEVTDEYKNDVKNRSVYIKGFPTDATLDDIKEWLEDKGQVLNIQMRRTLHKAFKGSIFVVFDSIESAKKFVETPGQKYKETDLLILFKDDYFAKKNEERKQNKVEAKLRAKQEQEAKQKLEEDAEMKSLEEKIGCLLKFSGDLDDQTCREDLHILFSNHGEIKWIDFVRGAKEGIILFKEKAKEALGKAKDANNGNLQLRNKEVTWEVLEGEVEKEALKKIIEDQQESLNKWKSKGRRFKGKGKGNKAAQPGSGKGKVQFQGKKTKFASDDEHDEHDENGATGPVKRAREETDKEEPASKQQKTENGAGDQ

[4] = target: T4, HeLa cell extract proteins (Homo sapiens, UniProt O95456)
T4 construct: endogenous in cells; host or cells: HeLa cell extract
T4 sequence (O95456 1-288): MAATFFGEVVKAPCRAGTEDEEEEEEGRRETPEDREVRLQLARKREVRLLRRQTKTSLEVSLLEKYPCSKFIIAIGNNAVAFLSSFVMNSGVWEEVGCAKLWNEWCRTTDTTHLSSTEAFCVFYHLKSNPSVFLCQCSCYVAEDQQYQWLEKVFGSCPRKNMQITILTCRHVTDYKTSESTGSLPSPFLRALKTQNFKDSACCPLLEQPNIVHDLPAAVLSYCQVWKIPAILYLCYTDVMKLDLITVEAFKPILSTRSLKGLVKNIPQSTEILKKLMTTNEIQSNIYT

[5] = target: T5, HeLa cell extract proteins (Homo sapiens, UniProt Q9H857)
T5 construct: endogenous in cells; host or cells: HeLa cell extract
T5 sequence (Q9H857 1-520): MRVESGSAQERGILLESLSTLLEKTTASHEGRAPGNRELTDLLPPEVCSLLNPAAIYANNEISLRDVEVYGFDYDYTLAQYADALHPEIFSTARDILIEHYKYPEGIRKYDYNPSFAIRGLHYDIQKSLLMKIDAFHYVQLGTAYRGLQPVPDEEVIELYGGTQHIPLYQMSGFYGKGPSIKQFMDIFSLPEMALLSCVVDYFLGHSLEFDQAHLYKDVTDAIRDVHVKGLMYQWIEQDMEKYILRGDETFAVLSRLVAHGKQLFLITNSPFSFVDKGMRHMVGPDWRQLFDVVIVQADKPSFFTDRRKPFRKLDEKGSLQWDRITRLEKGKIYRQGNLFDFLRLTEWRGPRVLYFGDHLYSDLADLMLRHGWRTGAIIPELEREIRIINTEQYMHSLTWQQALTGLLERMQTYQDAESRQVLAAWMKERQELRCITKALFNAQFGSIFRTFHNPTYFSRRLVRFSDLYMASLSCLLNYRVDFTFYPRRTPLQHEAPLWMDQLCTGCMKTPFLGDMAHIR

[6] = HeLa, protein SSB (LUPUS LA PROTEIN.)

| Structure (SMILES) | fold changes relative to vehicle control ([1]; HeLa, protein PPP6C) | fold changes relative to vehicle control ([2]; protein IPO4, HeLa) | fold changes relative to vehicle control ([3]; HeLa, protein SSB) | fold changes relative to vehicle control ([4]; HeLa, captured protein PSMG1) | fold changes relative to vehicle control ([5]; HeLa, captured protein NT5DC2) | fold changes relative to vehicle control [1] | fold changes relative to vehicle control [2] | fold changes relative to vehicle control [3] | fold changes relative to vehicle control [4] | fold changes relative to vehicle control [5] | fold changes relative to vehicle control ([2]; captured protein IPO4, HeLa) | fold changes relative to vehicle control [3, 6] [fold] | fold changes relative to vehicle control ([4]; HeLa, protein PSMG1) | fold changes relative to vehicle control ([5]; protein NT5DC2, HeLa) |
| --- | --- | --- | --- | --- | --- | --- | --- | --- | --- | --- | --- | --- | --- | --- |
| Nc1nc2c(c(=O)[nH]1)N(C=O)C(CNc1ccc(C(=O)N[C@@H](CCC(=O)O)C(=O)O)cc1)CN2 (some centres unmarked) [LEU, leucovorin] | 0.99 | 0.89 | 1.03 | 0.9 | 0.94 | – | – | – | – | – | – | – | – | – |
| Nc1nc2[nH]cc(CCc3ccc(C(=O)N[C@@H](CCC(=O)O)C(=O)O)cc3)c2c(=O)[nH]1 [PTX, pemetrexed] | – | – | – | – | – | 0.94 | 0.88 | 1.12 | 0.81 | 0.91 | – | – | – | – |
| CCCCCCOc1ccc(Cc2cnc(N)nc2N)cc1 [compound 1] | 1.01 | – | – | – | – | – | – | – | – | – | 0.83 | 1.38 | 0.9 | 1.05 |
| CCCCCCOc1cccc(Cc2cnc(N)nc2N)c1 [compound 2] | 0.99 | – | – | – | – | – | – | – | – | – | 1.01 | 2.04 | 0.91 | 0.91 |
| Nc1nc2cccc(-c3ccccc3)c2n1Cc1ccc(Cl)c(Cl)c1 [compound 3] | 1.04 | – | – | – | – | – | – | – | – | – | 0.97 | 1.01 | 1.03 | 1 |
| NCCOCCOCC(=O)Nc1nc2ncc(CNc3ccc(C(=O)NC(CCC(=O)O)C(=O)O)cc3)nc2c(=O)[nH]1 (centres unmarked) [compound 6] | 1.05 | 1.04 | 1.31 | 0.76 | 0.96 | – | – | – | – | – | – | – | – | – |
| NCCCNc1ccc(C(=O)NC(CCC(=O)O)C(=O)O)cc1 (centres unmarked) [compound 7] | 1.04 | 0.94 | 0.99 | 0.98 | 0.97 | – | – | – | – | – | – | – | – | – |
